Values quoted from earlier work, collected in US20020042375A1, “Method of treating cancer” (priority 2000, published 2002).

Legend:
[1] = test system: LNCaP prostate cancer cells
prostate cancer cell = settings: in vitro
[2] = test system: PC-3 prostate cancer cells; settings: PC-3 cells
LNCaP cells = settings: exogenous administration

**Q.** Which results are given for `CS(=O)(=O)Nc1ccc([N+](=O)[O-])cc1OC1CCCCC1` [NS398]?
**A.** apoptosis [1]: induce apoptosis; prostate cancer cell apoptosis (prostate cancer cell): induce prostate cancer cell apoptosis; apoptosis [2]: induce apoptosis

**Q.** With `CC(=O)Oc1ccccc1C(=O)O` [aspirin] as the compound, how does the “prostate cancer cell apoptosis” value (prostate cancer cell) read?
**A.** induce prostate cancer cell apoptosis

**Q.** Which results are given for `CCCCC(C)(C)[C@H](O)/C=C/[C@H]1[C@H](O)CC(=O)[C@@H]1C/C=C\CCCC(=O)O` [dimethylprostaglandin E2]?
**A.** proliferation in vitro (PC-3 cells; exogenous administration, PC-3 cells): increased proliferation; proliferation in vitro (LNCaP cells): increased proliferation

**Q.** Which results are given for `CC(C(=O)O)c1ccc(-c2ccccc2)c(F)c1` (centres unmarked) [flurbiprofen]?
**A.** PC-3 growth (PC-3 cells; in the dimethylprostaglandin E2 model): inhibited PC-3 growth; prostate cancer cell apoptosis (prostate cancer cell): induce prostate cancer cell apoptosis

**Q.** For `COc1ccc2c(c1)c(CC(=O)O)c(C)n2C(=O)c1ccc(Cl)cc1` [indomethacin], which “prostate cancer cell apoptosis” value (prostate cancer cell) is on record?
**A.** induce prostate cancer cell apoptosis

**Q.** For `CC(C(=O)O)c1cccc(C(=O)c2ccccc2)c1` (centres unmarked) [ketoprofen], which “prostate cancer cell apoptosis” value (prostate cancer cell) is on record?
**A.** induce prostate cancer cell apoptosis

**Q.** With `CN1C(C(=O)Nc2ccccn2)=C(O)c2ccccc2S1(=O)=O` [piroxicam] as the compound, how does the “prostate cancer cell apoptosis” value (prostate cancer cell) read?
**A.** induce prostate cancer cell apoptosis
